# Source: patent US20230278972A1, “SUBSTITUTED HALOALKYL SULFONANILIDE HERBICIDES” (FMC Corporation, priority 2020, published 2023)
# Experiments:
# Format in all cases: in vivo
# [1] = system: Foxtail, Giant (giant foxtail, Setaria faberi); test: Test A1 postemergence, Foxtail, Giant; conditions: 0 to 100 scale (0 no effect, 100 complete control)
# Method in brief: (§1)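 Plants grown in pots of loam/sand mix; preemergence = soil-directed spray on seeded pots, postemergence = spray at 1–2 leaves, height 2–10 cm; test chemicals formulated in non-phytotoxic solvent with surfactant.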
# [2] = system: galium (catchweed bedstraw, Galium aparine); test: Test A1 postemergence, galium; conditions: 0 to 100 scale (0 no effect, 100 complete control)
# Method in brief: as §1
# [3] = system: ragweed (common ragweed, Ambrosia artemisiifolia); test: Test A1 postemergence, ragweed; conditions: 0 to 100 scale (0 no effect, 100 complete control)
# Method in brief: (§2)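 Pre: seeds in loam/sand blend, directed soil spray. Post: potted plants, same soil, 2–10 cm, 1–2 leaf stage. Chemicals in non-phytotoxic solvent + surfactant for both.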
# [4] = system: barnyardgrass (Echinochloa crus-galli); test: Test B1 flooded paddy test, barnyardgrass; conditions: 250 g ai/ha, Flood, applied to paddy water, 2-leaf stage, visually evaluated after 10 to 14 days
# Text: (§3) A dash (-) response means no test result.
# [5] = system: blackgrass (Alopecurus myosuroides); test: Test A1 preemergence, blackgrass
# Method in brief: (§4)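 Herbicidal response was scored on plants treated either preemergence, by directed spray onto soil of a loam–sand blend after sowing, or postemergence on potted plants at the one- to two-leaf stage, 2–10 cm high. Test chemicals were carried in a non-phytotoxic solvent mix with surfactant.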
# soybean (Glycine max) [6] = test: Test A1 postemergence, soybean; conditions: 0 to 100 scale (0 no effect, 100 complete control)
# Method in brief: as §1
# [7] = system: Ryegrass, Italian (Italian ryegrass, Lolium multiflorum); test: Test A1 preemergence, Ryegrass, Italian
# Method in brief: as §4
# [8] = system: goosegrass (Eleusine indica); test: Test A1 preemergence, goosegrass
# Method in brief: as §4
# [9] = system: Ryegrass, Italian (Italian ryegrass, Lolium multiflorum); test: Test A1 postemergence, Ryegrass, Italian; conditions: 0 to 100 scale (0 no effect, 100 complete control)
# Method in brief: as §1
# [10] = system: horseweed (Erigeron canadensis); test: Test A1 postemergence, horseweed; conditions: 0 to 100 scale (0 no effect, 100 complete control)
# Method in brief: as §1
# kochia (Bassia scoparia) [11] = test: Test A1 preemergence, kochia
# Method in brief: as §4
# [12] = system: wheat (Triticum aestivum); test: Test A1 preemergence, wheat
# Method in brief: as §4
# [13] = system: Oat, Wild (wild oat, Avena fatua); test: Test A1 postemergence, Oat, Wild; conditions: 0 to 100 scale (0 no effect, 100 complete control)
# Method in brief: as §2
# soybean (Glycine max) [14] = test: Test A1 preemergence, soybean
# Method in brief: as §4
# corn (Zea mays) [15] = test: Test A1 postemergence, corn; conditions: 0 to 100 scale (0 no effect, 100 complete control)
# Method in brief: as §4
# kochia (Bassia scoparia) [16] = test: Test A1 postemergence, kochia; conditions: 0 to 100 scale (0 no effect, 100 complete control)
# Method in brief: as §1
# [17] = system: goosegrass (Eleusine indica); test: Test A1 postemergence, goosegrass; conditions: 0 to 100 scale (0 no effect, 100 complete control)
# Method in brief: as §1
# [18] = system: Foxtail, Giant (giant foxtail, Setaria faberi); test: Test A1 preemergence, Foxtail, Giant
# Method in brief: as §4
# rice (Oryza sativa) = test: Test B1 flooded paddy test, rice; conditions: 250 g ai/ha, Flood, applied to paddy water, 2-leaf stage, visually evaluated after 10 to 14 days
# Text: as §3
# [19] = system: Pigweed, Palmer (palmer amaranth, palmer pigweed, Amaranthus palmeri); test: Test A1 postemergence, Pigweed, Palmer; conditions: 0 to 100 scale (0 no effect, 100 complete control)
# Method in brief: as §2
# [20] = system: ducksalad (Heteranthera limosa); test: Test B1 flooded paddy test, ducksalad; conditions: 250 g ai/ha, Flood, applied to paddy water, 2-leaf stage, visually evaluated after 10 to 14 days
# Text: as §3
# [21] = system: wheat (Triticum aestivum); test: Test A1 postemergence, wheat; conditions: 0 to 100 scale (0 no effect, 100 complete control)
# Method in brief: as §1
# corn (Zea mays) [22] = test: Test A1 preemergence, corn
# Method in brief: as §2
# [23] = system: blackgrass (Alopecurus myosuroides); test: Test A1 postemergence, blackgrass; conditions: 0 to 100 scale (0 no effect, 100 complete control)
# Method in brief: as §1
# [24] = system: Pigweed, Palmer (palmer amaranth, palmer pigweed, Amaranthus palmeri); test: Test A1 preemergence, Pigweed, Palmer
# Method in brief: as §4
# [25] = system: ragweed (common ragweed, Ambrosia artemisiifolia); test: Test A1 preemergence, ragweed
# Method in brief: as §4
# [26] = system: Oat, Wild (wild oat, Avena fatua); test: Test A1 preemergence, Oat, Wild
# Method in brief: as §4
# [27] = Postemergence, 125 g ai/ha, 10 days
# [28] = 31 g ai/ha, 0 to 100 scale (0 no effect, 100 complete control)
# [29] = 125 g ai/ha, 0 to 100 scale, 0 no effect, 100 complete control
compound,measurement,setting,value
Cc1cc(C)c(N2CC3(CCCCC3)CC2=O)cc1NS(=O)(=O)C(F)(F)F [Compound 392],"Foxtail, Giant plant response rating","[1]; 31 g ai/ha, postemergence",0
same,"Plant response rating, Foxtail, Giant",[1]; [27],0
same,Galium plant response rating,"[2]; 31 g ai/ha, postemergence",50
same,"Plant response rating, Galium",[2]; [27],80
same,Ragweed plant response rating,"[3]; 31 g ai/ha, postemergence",30
same,"Plant response rating, Ragweed",[3]; [27],70
same,"Plant response rating, Barnyardgrass (0 to 100 scale, 0 is no effect, 100 is complete control)",[4],0
same,"Plant response rating, Blackgrass",[5]; [28],10
same,"Plant response rating, Blackgrass",[5]; [29],40
same,Soybean plant response rating,"soybean (Glycine max) [6]; 31 g ai/ha, postemergence",50
same,"Plant response rating, Soybean",soybean (Glycine max) [6]; [27],60
same,"Plant response rating, Ryegrass, Italian",[7]; [28],0
same,"Plant response rating, Ryegrass, Italian",[7]; [29],60
same,"Plant response rating, Goosegrass",[8]; [28],40
same,"Plant response rating, Goosegrass",[8]; [29],100
same,"Ryegrass, Italian plant response rating","[9]; 31 g ai/ha, postemergence",0
same,"Plant response rating, Ryegrass, Italian",[9]; [27],0
same,Horseweed plant response rating,"[10]; 31 g ai/ha, postemergence",0
same,"Plant response rating, Horseweed",[10]; [27],20
same,"Plant response rating, Kochia",kochia (Bassia scoparia) [11]; [28],20
same,"Plant response rating, Kochia",kochia (Bassia scoparia) [11]; [29],20
same,"Plant response rating, Wheat",[12]; [28],0
same,"Plant response rating, Wheat",[12]; [29],50
same,"Oat, Wild plant response rating","[13]; 31 g ai/ha, postemergence",0
same,"Plant response rating, Oat, Wild",[13]; [27],0
same,"Plant response rating, Soybean",soybean (Glycine max) [14]; [28],0
same,"Plant response rating, Soybean",soybean (Glycine max) [14]; [29],0
same,Corn plant response rating,"corn (Zea mays) [15]; 31 g ai/ha, postemergence",0
same,"Plant response rating, Corn",corn (Zea mays) [15]; [27],0
same,Kochia plant response rating,"kochia (Bassia scoparia) [16]; 31 g ai/ha, postemergence",10
same,"Plant response rating, Kochia",kochia (Bassia scoparia) [16]; [27],20
same,Goosegrass plant response rating,"[17]; 31 g ai/ha, postemergence",0
same,"Plant response rating, Goosegrass",[17]; [27],0
same,"Plant response rating, Foxtail, Giant",[18]; [28],0
same,"Plant response rating, Foxtail, Giant",[18]; [29],100
same,"Plant response rating, Rice (0 to 100 scale, 0 is no effect, 100 is complete control)",rice (Oryza sativa),0
same,"Pigweed, Palmer plant response rating","[19]; 31 g ai/ha, postemergence",0
same,"Plant response rating, Pigweed, Palmer",[19]; [27],40
same,"Plant response rating, Ducksalad (0 to 100 scale, 0 is no effect, 100 is complete control)",[20],65
same,Wheat plant response rating,"[21]; 31 g ai/ha, postemergence",0
same,"Plant response rating, Wheat",[21]; [27],30
same,"Plant response rating, Corn",corn (Zea mays) [22]; [28],10
same,"Plant response rating, Corn",corn (Zea mays) [22]; [29],10
same,Blackgrass plant response rating,"[23]; 31 g ai/ha, postemergence",0
same,"Plant response rating, Blackgrass",[23]; [27],0
same,"Plant response rating, Pigweed, Palmer",[24]; [28],0
same,"Plant response rating, Pigweed, Palmer",[24]; [29],20
same,"Plant response rating, Ragweed",[25]; [28],0
same,"Plant response rating, Ragweed",[25]; [29],0
same,"Plant response rating, Oat, Wild",[26]; [28],20
same,"Plant response rating, Oat, Wild",[26]; [29],60
